According to paper PMC10310851 (Signal Transduction and Targeted Therapy, 2023):
Read-outs that look alike come from different tables or passages of the source.

Columns and labels:
[1] = tested on: ROS1 fusion-positive NSCLC; conditions: cited from earlier work
[2] = tested on: NSCLC with ROS1 rearrangements; parameters: method as in PMID 28520527; conditions: cited from earlier work
[3] = tested on: Lung cancer cell NCI-H2228; test: Growth inhibition of cancer cell lines: NCI-H2228; format: cell-based; conditions: Homo sapiens
[4] = parameters: method as in PMID 31751012; conditions: cited from earlier work
[5] = tested on: Gastric cancer cell SNU-5; test: Growth inhibition of cancer cell lines: SNU-5; format: cell-based; conditions: Homo sapiens
[6] = tested on: Lung cancer cell NCI-H3122; test: Growth inhibition of cancer cell lines: NCI-H3122; format: cell-based; conditions: Homo sapiens
[7] = tested on: ROS1-rearranged NSCLC; parameters: method as in PMID 34511132; conditions: first-line, cited from earlier work
[8] = parameters: method as in PMID 25264305; conditions: cited from earlier work
[9] = tested on: ROS1-positive advanced NSCLC; parameters: method as in PMID 29596029; conditions: cited from earlier work
[10] = tested on: ROS1-rearranged NSCLC; parameters: method as in PMID 31416808; conditions: 2/6, METROS trial ref 13; cited from earlier work
[11] = no radiotherapy within the preceding 6 months ref 21
[12] = radiotherapy within the preceding 6 months ref 21

## CN1CCN(c2ccc(C(=O)Nc3n[nH]c4ccc(Cc5cc(F)cc(F)c5)cc34)c(NC3CCOCC3)c2)CC1 [entrectinib]
[1]
  DCR: 75.8%
  Intracranial ORR: 79.2%
  Median PFS: 15.7 months
[1]; measurable central nervous system lesions at baseline ref 21
  Median intracranial PFS: 12.0 months
[1]; [11]
  Intracranial ORR: 46.2%
  Intracranial PFS: 8.8 months
[1]; overall patient population ref 21
  ORR: 67.1%
[1]; patients who had brain metastases at baseline ref 21
  ORR: 62.5%
[1]; patients with CD74-ROS1 fusions ref 21
  ORR: 72.9%
[1]; [12]
  Intracranial ORR: 60%
  Intracranial PFS: 16.1 months

## Cc1cc(Nc2ncc(Cl)c(Nc3ccccc3S(=O)(=O)C(C)C)n2)c(OC(C)C)cc1C1CCNCC1 [ceritinib]
[2]
  Intracranial ORR: 29%

## C[C@@H](Oc1cc(-c2cnn(C3CCNCC3)c2)cnc1N)c1c(Cl)ccc(F)c1Cl [crizotinib]
[3]
  IC50: 358 nM
[4]
  Any grade elevated ALT: 14%
  Any grade elevated AST: 22%
  Grade III or higher elevated ALT: 4%
  Grade III or higher elevated AST: 2%
[5]
  IC50: 29.1 nM
[6]
  IC50: 214 nM
[7]; non-CD74-ROS1 fusions ref 27
  Median PFS: 21.0 months
[7]; tumor harboring CD74-ROS1 ref 27
  Median PFS: 17.0 months
[8]
  Dizziness: 16%
  Dysgeusia: 18%
  Ophthalmological AEs: 82%
  Reduced neutrophil count: 12%
[9]; OO 12-01 study ref 15
  ORR by IRC: 71.7%
[9]
  DCR: 88.2%
  Median PFS: 15.9 months
  Rate of drug dose interruptions due to TRAEs: 22.8%
[10]
  Intracranial ORR: 33%
